# Experimental data as given in patent publication US20220249492A1, “ANTICANCER COMBINATION THERAPY” (Boehringer Ingelheim International GmbH, priority 2019, published 2022).
# Columns and labels:
# [1] = target: T1, protein-protein interaction between SOS1 and KRAS G12D (Homo sapiens, UniProt Q07889); assay: KRAS::SOS1 AlphaScreen binding assay
# T1 construct: GST-TEV-SOS1 (564-1049) is purchased from Viva Biotech Ltd; purchased Viva Biotech Ltd. (GST-TEV-SOS1); Xtal BioStructures, Inc. (K-Ras G12D) Lot #X129-110 (K-Ras)
# T1 sequence (Q07889 564-1049): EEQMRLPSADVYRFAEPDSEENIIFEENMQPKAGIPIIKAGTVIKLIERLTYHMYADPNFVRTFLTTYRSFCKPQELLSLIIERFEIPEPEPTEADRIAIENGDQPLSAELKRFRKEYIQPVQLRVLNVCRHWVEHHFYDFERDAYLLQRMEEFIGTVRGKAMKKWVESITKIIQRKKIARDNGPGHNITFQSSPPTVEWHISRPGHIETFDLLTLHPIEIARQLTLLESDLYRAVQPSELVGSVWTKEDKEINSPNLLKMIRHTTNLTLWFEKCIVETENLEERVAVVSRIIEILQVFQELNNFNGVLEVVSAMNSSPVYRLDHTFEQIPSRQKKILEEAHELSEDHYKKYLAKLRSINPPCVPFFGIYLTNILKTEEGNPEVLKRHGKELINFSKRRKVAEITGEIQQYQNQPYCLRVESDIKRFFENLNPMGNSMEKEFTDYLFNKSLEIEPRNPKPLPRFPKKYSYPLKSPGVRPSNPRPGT
# Protocol: KRAS::SOS1 AlphaScreen Binding Assay
# Low IC50 values are indicative of high potency of the SOS1 inhibitors in this assay setting:
# 10 nM (final assay concentration) KRAS G12D, 10 μM (final assay concentration) GDP and 5 nM (final assay concentration) GST-SOS1 are mixed in assay buffer prior to use and kept at room temperature.
# AlphaLISA Glutathione Acceptor Beads and AlphaScreen Streptavidin Donor Beads are mixed in assay buffer at a concentration of 10 μg/mL (final assay concentration) each prior to use and kept at room temperature.
# Compounds are diluted to a final start concentration of 100 μM and are tested in duplicate. Assay-ready plates (ARPs) are generated using an Access Labcyte Workstation with a Labcyte Echo 550 or 555 accoustic dispenser. For compound a start concentration of 100 μM, 150 nL of compound solution is transferred per well in 11 concentrations in duplicate with serial 1:5 dilutions.
# The assay is run using a fully automated robotic system in a darkened room below 100 Lux. 10 μL of KRAS::SOS1 GDP mix is added into columns 1-24 to the 150 nL of compound solution (final dilution in the assay 1:100, final DMSO concentration 1%).
# After a 30 minute incubation time 5 μL of bead mix is added into columns 1-23. Plates are kept at room temperature in a darkened incubator. After a further 60 minute incubation, the signal is measured using a PerkinElmer Envision HTS Multilabel Reader using the AlphaScreen specifications from PerkinElmer. Each plate contains the following controls: • diluted DMSO+KRAS::SOS1 GDP mix+bead mix • diluted DMSO+KRAS::SOS1 GDP mix
# IC50 values are calculated and analyzed using a 4 parametric logistic model.
# [2] = test system: ERK phosphorylation (pERK Thr202/Tyr204) in DLD-1 cells (KRAS G13D); assay: ERK phosphorylation assay (AlphaLISA SureFire Ultra p-ERK1/2) in DLD-1 cells; type: cell-based; conditions: Homo sapiens, 1 h compound incubation, EGF 50 ng/mL for 10 minutes
# Protocol: ERK Phosphorylation Assay
# Low IC50 values are indicative of high potency of the SOS1 inhibitors in this assay setting.
# ERK phosphorylation assays are performed using the following human cell lines:
# DLD-1 (ATCC CCL-221): human colon cancer with a KRAS G13D mutation;
# DLD-1 cells (ATCC CCL-221) are seeded at 50,000 cells per well in/60 μL of RPMI with 10% FBS, non-essential amino acids, pyruvate and glutamax in Greiner TC 384 plates. The cells are incubated for 1 h at room temperature and then incubated overnight in an incubator at 37° C. and 5% CO2 in a humidified atmosphere. 60 nL compound solution (10 mM DMSO stock solution) is then added using a Labcyte Echo 550 device. After a 1 h incubation in the aforementioned incubator, 3 μL Epidermal Growth Factor (EGF, final concentration 50 ng/mL) is added. […] After 20 minutes of incubation at room temperature with shaking, 6 μL of each lysate sample is transferred to a 384-well Proxiplate and analyzed for pERK (Thr202/Tyr204) with the AlphaLISA SureFire Ultra pERK1/2 (Thr202/Tyr204) Assay Kit. 3 μL Acceptor Mix and 3 μL Donor Mix are added under subdued light and incubated for 2 h at room temperature in the dark, before the signal is measured on a Perkin Elmer Envision plate reader using 384 AlphaScreen settings for Proxiplates. […]
# [3] = Metabolic (microsomal) stability assay, mouse (MLM); type: in vitro ADME; conditions: mouse liver microsomes, 0.5 mg/mL protein, 1 μM test compound, 37° C.; predicted clearance as percent of liver blood flow
# Protocol: (§1) Metabolic (Microsomal) Stability Assay:
# (§2) The metabolic degradation of the test compound is assayed at 37° C. with pooled liver microsomes (mouse (MLM), rat (RLM) or human (HLM)). The final incubation volume of 74 μL per time point contains TRIS buffer (pH 7.5; 0.1 M), magnesium chloride (6.5 mM), microsomal protein (0.5 mg/mL for mouse/rat, 1 mg/mL for human specimens) and the test compound at a final concentration of 1 μM. Following a short preincubation period at 37° C., the reactions are initiated by addition of 8 μL beta-nicotinamide adenine dinucleotide phosphate, reduced form (NADPH, 10 mM) and terminated by transferring an aliquot into solvent after different time points. Additionally, the NADPH-independent degradation is monitored in incubations without NADPH, terminated at the last time point by addition of acetonitrile. The quenched incubations are pelleted by centrifugation (1811 g, 5 min). An aliquot of the supernatant is assayed by LC-MS/MS for the amount of parent compound.
# (§3) In vitro intrinsic clearance (CLint,in vitro) is calculated from the time course of the disappearance of the test drug during the microsomal incubation. […] For better across species comparison the predicted clearance is expressed as percent of the liver blood flow [% QH] in the individual species. […]
# [4] = Metabolic (microsomal) stability assay, rat (RLM); type: in vitro ADME; conditions: rat liver microsomes, 0.5 mg/mL protein, 1 μM test compound, 37° C.; predicted clearance as percent of liver blood flow
# Protocol: as §1, §2, §3
# [5] = Metabolic (microsomal) stability assay, human (HLM); type: in vitro ADME; conditions: human liver microsomes, 1 mg/mL protein, 1 μM test compound, 37° C.; predicted clearance as percent of liver blood flow
# Protocol: as §1, §2, §3
# CYP3A4 = target: T2, CYP3A4 (Homo sapiens, UniProt P08684); assay: Time dependent inhibition of CYP3A4 assay (TDI 3A4); type: in vitro ADME; conditions: human liver microsomes, 25 uM test compound; hydroxy-midazolam formation after 30 min preincubation relative to 0 min preincubation
# T2 construct: from tissue; host or cells: human liver microsomes
# T2 sequence (P08684 whole entry): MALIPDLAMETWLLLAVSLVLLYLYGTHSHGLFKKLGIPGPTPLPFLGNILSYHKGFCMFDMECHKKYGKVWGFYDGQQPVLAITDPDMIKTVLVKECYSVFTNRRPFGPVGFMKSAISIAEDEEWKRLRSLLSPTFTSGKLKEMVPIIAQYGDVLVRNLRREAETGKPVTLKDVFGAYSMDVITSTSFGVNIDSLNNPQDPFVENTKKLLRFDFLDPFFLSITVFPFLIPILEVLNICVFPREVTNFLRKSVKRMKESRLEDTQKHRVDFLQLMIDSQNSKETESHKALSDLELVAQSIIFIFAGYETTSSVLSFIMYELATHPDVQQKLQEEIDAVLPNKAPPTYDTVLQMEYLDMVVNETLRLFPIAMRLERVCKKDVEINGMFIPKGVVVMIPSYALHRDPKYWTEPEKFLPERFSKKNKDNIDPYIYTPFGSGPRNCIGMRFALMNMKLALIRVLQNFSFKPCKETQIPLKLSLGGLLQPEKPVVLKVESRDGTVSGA
# Protocol: Time dependent inhibition of CYP3A4 Assay (TDI 3A4):
# The time dependent inhibition towards CYP3A4 is assayed in human liver microsomes (0.02 mg/mL) with midazolam (15 μM) as a substrate. The test compounds are preincubated in presence of NADPH with human liver microsomes (0.2 mg/mL) at a concentration of 25 uM for 0 min and 30 min. After preincubation, the incubate is diluted 1:10 and the substrate midazolam is added for the main incubation (15 min). The main incubation is quenched with acetonitrile and the formation of hydroxy-midazolam is quantified via LC/MS-MS. The formation of hydroxy-midazolam from the 30 min preincubation relative to the formation from the 0 min preincubation is used as a readout. Values of less than 100% mean that the substrate midazolam is metabolized to a lower extend upon 30 min preincubation compared to 0 min preincubation. In general low effects upon 30 min preincubation are desired (corresponding to values close to 100%)
# [6] = KRAS::SOS1 AlphaScreen, KRAS G12D, IC50, tables 20 and 24
# [7] = KRAS G12D::SOS1 AlphaScreen, measured without EDTA unless marked with an asterisk
Compound,"IC50 [1, 6]",IC50 [2],MLM [% QH] [3],RLM [% QH] [4],HLM [% QH] [5],TDI 3A4 [%] (CYP3A4),"IC50 [1, 7]"
Cc1nc(N[C@H](C)c2cccc(C(F)(F)F)c2C)c2cn([C@H]3C[C@H](F)C3)c(=O)cc2n1 [I-45],11 nM,47 nM,–,–,–,–,–
C[C@@H](Nc1ncnc2cc(=O)n(C34CC(F)(C3)C4)cc12)c1cccc(C(C)(F)F)c1F [I-78],9 nM,–,<24 % QH,<23 % QH,<24 % QH,–,–
Cc1nc(N[C@H](C)c2cccc(C(F)(F)F)c2C)c2cn(C34CCN(CC3)CC4)c(=O)cc2n1 [I-128],–,–,<24 % QH,<23 % QH,29 % QH,98%,2 nM
Cc1nc(N[C@H](C)c2cccc(C(C)(F)F)c2)c2cn(C3(C(F)(F)F)CCOC3)c(=O)cc2n1 (stereo partly drawn) [I-129],–,–,–,–,–,–,18 nM
Cc1c(=O)n(C2(C)CC2)cc2c(N[C@H](C)c3cccc(C(F)(F)F)c3)ncnc12 [I-173],18 nM,–,–,–,–,84%,–
C[C@@H](Nc1ncnc2c(C3CC3)c(=O)n(C3(C)CC3)cc12)c1cccc(C(F)F)c1F [I-179],–,–,–,–,–,–,11 nM
